Laboratory results taken from patent US12648946B2, “Combination of antibody-pyrrolobenzodiazepine derivative conjugate and PARP inhibitor” (DAIICHI SANKYO COMPANY, LIMITED, priority 2019, dated 2026).
Where two headings read alike, the source gives them in different places.

Legend:
[1] = system: human pharyngeal cancer cell line FaDu; test: Cell growth inhibition test (3); type: cell-based; settings: 144 h
Description: The human pharyngeal cancer cell line FaDu obtained from ATCC (American Type Culture Collection) was used for evaluation. Cells were prepared with MEM containing 10% fetal bovine serum (GE Healthcare), MEM Non-Essential Amino Acids Solution (Thermo Fisher Scientific), and Sodium Pyruvate (Thermo Fisher Scientific) (Thermo Fisher Scientific; hereinafter, referred to as EMEM medium) to reach 6.25×10^3 cells/mL, and 80 μL portions of them were added into a 96-well cell culture microplate. After addition of the cells, the cells were cultured at 37° C. and 5% CO2 overnight.
On the next day, 10 μL portions of pyrrolobenzodiazepine derivative A, B, or C diluted with EMEM medium to 100 pM, 50 pM, 25 pM, 12.5 pM, 6.25 pM, 3.13 pM, 1.56 pM, or 0.78 pM were added to the microplate. To each well without any pyrrolobenzodiazepine derivative, 10 μL of EMEM medium was added. Further, 10 μL portions of talazoparib prepared with EMEM medium to reach 2 nM were added to the microplate. To each well without talazoparib, 10 μL of EMEM medium was added. Thereafter, the microplate was cultured at 37° C. and 5% CO2 for 6 days. After culturing, the microplate was taken out of the incubator, and left to stand at room temperature for 30 minutes. CellTiter-Glo Luminescent Cell Viability Assay (Promega Corporation) in an amount equivalent to that of the culture solution was added, and stirred using a plate mixer. The microplate was left to stand at room temperature for 10 minutes, and thereafter the amount of emission was measured by using a plate reader (PerkinElmer).
Cell survival rates in wells with derivative A, B, or C were calculated by using the following formula.
[formula] • a: Mean value of amounts of emission from wells with derivative A, B, or C • b: Mean value of amounts of emission from wells with medium • IC50 values were calculated by using the following formula.
(§1) [formula] • a: Concentration of derivative A, B, or C, a • b: Concentration of derivative A, B, or C, b • c: Cell survival rate when derivative A, B, or C of concentration a was added • d: Cell survival rate when derivative A, B, or C of concentration b was added • a and b satisfy a>b at points sandwiching a cell survival rate of 50%.
Cell survival rates in wells with derivative A, B, or C added together with 2 nM talazoparib were calculated by using the following formula.
[formula] • a: Mean value of amounts of emission from wells with derivative A, B, or C added together with 2 nM talazoparib • b: Mean value of amounts of emission from wells with 2 nM talazoparib • IC50 values were calculated by using the following formula.
as §1, with “and 2 nM talazoparib were” for “was”

[2] = system: human pharyngeal cancer cell line FaDu; test: Antitumor test (3), subcutaneous xenograft; type: in vivo, mouse; settings: single administration
Description: (§2) Mouse: Five- to six-week-old female BALB/c nude mice (Charles River Laboratories Japan, Inc.) were subjected to experiment. Assay and calculation formula: In all of the studies, the major axis and minor axis of a tumor were measured twice a week by using an electronic digital caliper ([…] Corp.), and the tumor volume (mm^3) was calculated. The calculation formula is as shown below. [formula] Each of the anti-CLDN6 antibody-drug conjugate ADC1, the anti-HER2 antibody-drug conjugate ADC2, and the anti-TROP2 antibody-drug conjugate ADC3 was diluted with ABS buffer (10 mM acetate buffer (pH 5.5), 5% sorbitol), and a liquid volume of 10 mL/kg was intravenously administered into the tail vein. […] LLC)/Dulbecco's Phosphate-Buffered Saline, and then a liquid volume of 10 mL/kg was intraperitoneally administered. […] LLC)/Dulbecco's Phosphate-Buffered Saline, and then a liquid volume of 10 mL/kg was orally administered. Niraparib was dissolved in DMSO, diluted with 0.5% methylcellulose, and then a liquid volume of 10 mL/kg was orally administered. The described method is common to Examples 34 to 37. […]

[3] = system: human pancreatic cancer cell line CFPAC-1; test: Antitumor test (1), subcutaneous xenograft; type: in vivo, mouse; settings: single administration, talazoparib 0.8 mg/kg oral for 5 days from Day 0, Day 35, CFPAC-1
Description: as §2

## Cn1ncnc1[C@H]1c2n[nH]c(=O)c3cc(F)cc(c23)N[C@@H]1c1ccc(F)cc1 [talazoparib]
[1]; 2 nM talazoparib alone, 6 days
  inhibition at 0.002 µM: < 10%
[2]; talazoparib 0.8 mg/kg oral for 5 days from Day 0, Day 25, FaDu
  tumor growth inhibition (TGI): 33%
[3]
  tumor growth inhibition (TGI): 17%

## O=C(c1cc(Cc2n[nH]c(=O)c3ccccc23)ccc1F)N1CCN(C(=O)C2CC2)CC1 [olaparib, reference compound]
[2]; olaparib 50 mg/kg i.p. for 5 days from Day 0, Day 25, FaDu
  tumor growth inhibition (TGI): 7%

## COc1ccc(C2=CN3C(=O)c4cc(OC)c(OCCCCCOc5cc6c(cc5OC)C(=O)N5CC7(CC7)C[C@H]5C=N6)cc4NC[C@@H]3C2)cc1 [derivative A, (11a′S)-7′-Methoxy-8′-[(5-{[(11aS)-7-methoxy-2-(4-methoxyphenyl)-5-oxo-5,10,11,11a-tetrahydro-1H-pyrrolo[2,1-c][1,4]benzodiazepin-8-yl]oxy}pentyl)oxy]-1′,11a′-dihydro-5′H-spiro[cyclopropane-1,2′-pyrrolo[2,1-c][1,4]benzodiazepine]-5′-one]
[1]; read-out: IC50, growth-suppressing effect, added singly, FaDu, 6 days (test 3)
  IC50: 7.7 pM
[1]; read-out: IC50, growth-suppressing effect, added together with 2 nM talazoparib, FaDu, 6 days
  IC50: 4.7 pM
